We go through six compounds from patent publication US6365603B1, “Aromatic compounds and pharmaceutical compositions containing them” (Zeneca Ltd., priority 1995, dated 2002).

A word on the melting point: it is the temperature of the solid-liquid transition.

Test system in one series: not given
Conditions: not given
Consider `CCCOc1ccc(Br)cc1CN(CC)c1ccc(C(=O)O)nn1` [Example 18, 6-(N-[5-Bromo-2-propoxybenzyl]-N-ethylamino)pyridazine-3-carboxylic acid], for which the melting point was in the range of 135 to 137 °C. Take `CCN(Cc1cc(Cl)ccc1OCC1CC1)c1ccc(-c2nnn[nH]2)nn1` [Example 23, 5-[6-(N-[5-Chloro-2-cyclopropylmethoxybenzyl]-N-ethylamino)pyridazin-3-yl]tetrazole]: the melting point was 190 to 192 °C. Same read-out and setting: next, `CCN(Cc1cc(Br)ccc1OCC1CC1)c1ccc(C(=O)O)nn1` [Example 3, 6-[N-(5-Bromo-2-(cyclopropylmethoxy)benzyl)-N-ethylamino]pyridazine-3-carboxylic acid]: 73 to 80 °C; `CCN(Cc1cc(Cl)ccc1OCC1CC1)c1ccc(C(N)=O)nn1` [Example 21, 6-[N-(5-Chloro-2-(cyclopropylmethoxy)benzyl)-N-ethylamino]pyridazine-3-carboxamide]: 177 to 178 °C; `CCN(Cc1cc(Cl)ccc1OCC1CC1)c1ccc(C(=O)O)nn1` [Example 22, 6-[N-(5-Chloro-2-(cyclopropylmethoxy)benzyl)-N-ethylamino]pyridazine-3-carboxylic acid]: 119 to 120 °C.

In the next series the test system is EP1 receptors. The conditions noted are these: guinea pig ileum, dog fundus, cat trachea, chick ileum; cited from earlier work.
Take `CC(=O)NNC(=O)N1Cc2ccccc2Oc2ccc(Cl)cc21` [SC-19220]: the “block of the effect of PGE2 on tissues” value is given as “blocks the effect of PGE2 on some tissues such as guinea pig ileum or dog fundus but not on other tissues such as the cat trachea or chick ileum”.
